From patent publication US20220145303A1, “FRAGILE X MENTAL RETARDATION PROTEIN INTERFERING OLIGONUCLEOTIDES AND METHODS OF USING SAME” (Nogra Pharma Limited, priority 2019, published 2022)

Assays:
[1] = test system: FMRP; assay: FMRP knockdown: Western blot of FMRP after transfection with FMRP antisense or sense oligonucleotide; format: cell-based, human; settings: 48 hours, AS 0.5-100 nM, S 100 nM
Protocol: Total proteins were extracted from mouse colonic tissues, and lysed on ice in buffer containing 10 mM HEPES [pH 7.9], 10 mM KCl, 0.1 mM EthyleneDiamineTetraacetic Acid (EDTA), 0.2 mM Ethylene Glycol-bis (β-aminoethyl ether)-N,N,N′,N′-Tetraacetic Acid (EGTA) and 0.5% Nonidet P40 supplemented with 1 mM dithiothreitol (DTT), […], […], 1 mM phenylmethylsulfonyl fluoride (PMSF), 1 mM Na3VO4, and 1 mM NaF. Lysates were clarified by centrifugation and separated on sodium dodecyl sulphate (SDS)-polyacrylamide gel electrophoresis. Blots were incubated with antibodies against: FMRP (Cell Signaling, Danvers, Mass.), followed by a secondary antibody conjugated to horseradish peroxidase (Dako, Milan, Italy). After analysis, each blot was stripped and incubated with a mouse-anti-human monoclonal β-actin antibody (Sigma-Aldrich) to ascertain equivalent loading of the lanes.
Human CRC cell lines, DLD-1 and HCT-116, were obtained from the American Type Culture Collection (ATCC, Manassas, Va.) and cultured in RPMI 1640 (DLD-1) and McCoy's 5A (HCT-116) medium, respectively. All media were supplemented with 10% fetal bovine serum, 1% penicillin/streptomycin (both from Lonza, Verviers, Belgium). The normal human colon epithelial cell line (HCEC-1ct) was obtained from EVERCYTE GmbH (Vienna, Austria) and cultured in ColoUp® medium (EVERCYTE GmbH). Cells were maintained in a 37° C., 5% CO2, fully humidified incubator. Cell line lysates were prepared and analyzed by SDS-polyacrylamide gel electrophoresis/immunoblot using methods as previously described in Example 2. For immunofluorescent staining, cell lines were fixed with 3.7% formaldehyde for 10 minutes at 4° C., permeabilized with 0.1% Triton for 10 minutes at room temperature and blocked (1% bovine serum albumin, Tween 0.1%, glycine 2%) for 1 hour at room temperature. Fixed and blocked cells were incubated with anti-FMRP monoclonal antibody (1:500, Cell Signaling, Danvers, Mass.) overnight at 4° C. After washing with PBS, secondary antibody goat anti-rabbit Alexa 488 (1:2000, A11008; Invitrogen) was applied for 1 hour at room temperature. Slides were washed with PBS, mounted using Prolong Gold® anti-fade reagent with 4′,6-diamidino-2-phenylindole (P36931; Invitrogen) and analyzed by a Leica DMI4000 B microscope with Leica application suite software (V4.6.2).
Phosphorothioate single-stranded antisense oligonucleotides complementary to human FMRP [5′-[…]-3′ (SEQ ID NO: 6)] and single-stranded sense oligonucleotides [5′-[…]-3′ (SEQ ID NO: 15)] were synthesized. CRC cell lines and HCEC-1ct cells were transfected with either FMRP antisense (AS)(final concentration 0.5-100 nM) or FMRP sense oligonucleotide (S) (final concentration100 nM) for 24 and 48 hours, using Opti-MEM medium and lipofectamine 3000 reagent (Thermo Fisher Scientific, Waltham, Mass., USA) according to the manufacturer's instructions.

[2] = test system: CREB; assay: Western blot of CREB after CREB antisense transfection; format: cell-based; settings: human CRC cell lines, 200 nM, 24 or 48 hours, vs untreated or sense control, FIGS. 7D, 7E
Protocol: (§1) To asses if CREB regulates FMRP expression, CRC cell lines were transfected with either CREB antisense (ASc) (5′-[…]-3′) (SEQ ID NO: 16) or CREB sense (Ss) (5′-[…]-3′)(SEQ ID NO: 17)(final concentration 200 nM) for 24 or 48 hours. mRNA and total protein lysates were prepared and analyzed by RT-PCR and Western blot, respectively, as previously described in Examples 1 to 3.

[3] = test system: FMRP; assay: Western blot of FMRP after CREB antisense transfection; format: cell-based; settings: human CRC cell lines, CREB antisense 200 nM, 24 or 48 hours, FIGS. 7D, 7F
Protocol: as §1

[4] = test system: CRC cells; assay: Antisense-induced cell death after pan-caspase inhibitor pre-treatment (PI/AnnV flow cytometry); format: cell-based, human; settings: Q-VD-OPh 1 μM pre-treatment, FIG. 4C
Protocol: (§2) Immunotools, Friesoythe, Germany) according to the manufacturer's instructions, and incubated with […] of propidium iodide (PI) for 30 min at 4° C. Cells were also transfected with either FMRP sense oligonucleotide or FMRP AS oligonucleotide (final concentration 100 nM) for 36 hours and analyzed for activated caspase 3 and caspase 8. […] Additionally, 36 hours (FIGS. 4F and 4G) or 48 hours post-transfection (FIGS. 4D and 4E), cells were pulsed with […] bromodeoxyuridine for 60 minutes, fixed in 70% cold ethanol, and stored at −20° C. for at least 3 hours. […] Fluorescence was measured using Gallios Flow Cytometer (Beckman Coulter, Life Sciences, Pasadena, Calif., USA) and analyzed using Kaluza software (Beckman Coulter). Viable cells were considered as AV^−/PI^− cells.

[5] = test system: human CRC cell lines; assay: Antisense-induced cell death with RIPK1 or MLKL inhibitor (PI/AnnV flow cytometry); format: cell-based; settings: NEC1 10 μM, NSA 1 μM, 24 hours, FIGS. 6E, 6F
Protocol: To confirm the association of FMRP with components of the necroptosis pathway, cells were left untreated or transfected with either FMRP antisense oligonucleotide (final concentration 0.5 nM and 100 nM) or FMRP sense oligonucleotide (final concentration 100 nM); incubated with a pMLKL inhibitor (necrosulfonamide, NSA; final concentration 1 μM)(Calbiochem); or a pRIPK1 inhibitor (necrostatinl, NEC1; final concentration 10 μM)(Cayman Chemical, Ann Arbor, Mich. USA). After 24 hours cells were collected and analyzed by Western blot, or stained with FITC-Annexin V and PI for flow cytometry analysis, as previously described in Examples 1-3.

[6] = test system: caspase 3; assay: Activated caspase 3 by flow cytometry in CRC cells; format: cell-based, human; settings: oligonucleotide 100 nM 36 hours, staurosporin 1 μM, FIGS. 4A, 4B
Protocol: as §2

Molecule: 5′-ATGGAGGAGCTGGTGGTGGA-3′ (DNA, backbone and methylation of C not given here; further chemistry not fully specified) [sense oligonucleotide, single-stranded sense oligonucleotides, control, reference compound]
- FMRP expression ([1]; DLD-1 cells, FIG. 3D): no significant inhibition
- FMRP expression ([1]; HCEC-1ct cells, FIG. 3I): no significant inhibition
- FMRP expression ([1]; HCT-116 cells, FIG. 3G): no significant inhibition

Molecule: 5′-GCATCTCCACTCTGCTGGTT-3′ (listed as DNA, chemistry not given here) [CREB antisense oligonucleotide, CREB antisense (ASc)]
- CREB protein expression [2]: reduced expression of CREB protein
- FMRP protein expression [3]: concomitant reduction in FMRP protein expression

Molecule: CC(C)[C@H](NC(=O)c1ccc2ccccc2n1)C(=O)N[C@@H](CC(=O)O)C(=O)COc1c(F)cccc1F [Q-VD-OPh]
- effect of pre-treatment on FMRP antisense oligonucleotide-induced cell death [4]: did not alter FMRP antisense oligonucleotide-induced cell death

Molecule: CN1C(=O)C(Cc2c[nH]c3ccccc23)NC1=S (stereo not drawn) [necrostatin 1]
- effect on FMRP antisense oligonucleotide-induced cell death [5]: protected from FMRP antisense oligonucleotide-induced cell death

Molecule: COc1nccnc1NS(=O)(=O)c1ccc(NC(=O)/C=C/c2ccc([N+](=O)[O-])s2)cc1 [necrosulfonamide]
- effect on FMRP antisense oligonucleotide-induced cell death [5]: protected from FMRP antisense oligonucleotide-induced cell death

Molecule: CN[C@@H]1C[C@H]2O[C@@](C)([C@@H]1OC)n1c3ccccc3c3c4c(c5c6ccccc6n2c5c31)C(=O)NC4 [staurosporin, reference compound]
- percentage of activated caspase 3-positive cells [6]: significantly increased
